Experiment [1] relates to in vitro grown Mycobacteria (M. tuberculosis). In words: QUM: Quantification of in vitro grown Mycobacteria (in vitro growth fluorescence assay). The note with it: Mycobacterium tuberculosis. In kind it is cell-based. The method, boiled down: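 Mycobacterium tuberculosis grown in vitro was quantified by fluorescence across compound dose responses. MIC is defined as the minimum concentration producing 80% growth inhibition.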

In experiment [2] the test system is M. tuberculosis inside the host macrophage. In words: QIM: Quantification of Intracellular Mycobacteria (intracellular growth assay, phenotypic cell-based). The note with it: Mycobacterium tuberculosis. The method, boiled down:
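Phenotypic high-content assay measuring M. tuberculosis multiplication inside host macrophages, run as dose response. MIC is the minimum compound concentration giving 80% bacterial growth inhibition.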

Setting [3] is: MIC, 80% bacterial growth inhibition, in vitro growth, read-out: QUM.
[4] abbreviates: MIC, 80% bacterial growth inhibition, intracellular growth, read-out: QIM.

Converted amounts (≈) assume the structure as drawn. Where two headings read alike, the source gives them in different places. Some results are limits rather than exact numbers.

With `CCc1nc2cc(Cl)ccn2c1C(=O)NCc1ccc(-c2ccc(Cl)cc2C(F)(F)F)cc1` [Compound 130, 7-Chloro-N-((4′-chloro-2′-(trifluoromethyl)biphenyl-4-yl)methyl)-2-ethylimidazo[1,2-a]pyridine-3-carboxamide], the MIC is 1 to 20 µM (≈ 0.492 to 9.85 µg/mL) in experiment [1] (setting [3]) and below 1 µM in experiment [2] (setting [4]).

As to `CCc1nc2ccc(Cl)cn2c1C(=O)NCc1ccc(OC(F)(F)F)cc1` [Compound 72], the MIC in experiment [1] (setting [3]) and in experiment [2] (setting [4]) was below 1 µM in each case.

`CCc1nc2cc(N3CCNCC3)ccn2c1C(=O)NCc1ccc(C(C)(C)C)cc1` [Compound 145, N-(4-tert-Butylbenzyl)-2-ethyl-7-(piperazin-1-yl)imidazo[1,2-a]pyridine-3-carboxamide]: the MIC in experiment [1] (setting [3]) and in experiment [2] (setting [4]) was above 20 µM throughout.

Turning to `CCc1nc2cc(Cl)ccn2c1C(=O)NCc1ccc(-c2ccc(C)cc2)cc1` [Compound 98, 7-Chloro-2-ethyl-N-((4′-methylbiphenyl-4-yl)methyl)imidazo[1,2-a]pyridine-3-carboxamide], the MIC in experiment [1] (setting [3]) and in experiment [2] (setting [4]) was below 1 µM each time.

`Cc1nc2ccccn2c1C(=O)NCCc1ccccc1` [Compound 21, 2-Methyl-N-phenethylimidazo[1,2-a]pyridine-3-carboxamide]: the MIC in experiment [1] (setting [3]) and in experiment [2] (setting [4]) was above 20 µM throughout.

`CCc1nc2ccc(Cl)cn2c1C(=O)NCc1ccc(-c2ccccc2C)cc1` [Compound 84, 6-Chloro-2-ethyl-N-((2′-methylbiphenyl-4-yl)methyl)imidazo[1,2-a]pyridine-3-carboxamide]: the MIC in experiment [1] (setting [3]) and in experiment [2] (setting [4]) was below 1 µM throughout.

Consider `CCc1nc2ccc(Br)cn2c1C(=O)NCc1ccc(Oc2ccc(F)cc2)cc1` [Compound 189, 6-Bromo-2-ethyl-N-(4-(4-fluorophenoxy)benzyl)imidazo[1,2-a]pyridine-3-carboxamide], for which the MIC in experiment [1] (setting [3]) and in experiment [2] (setting [4]) was below 1 µM throughout.

For the compound `CCc1nc2ccccn2c1C(=O)NCc1ccc(OC(C)C)cc1` [Compound 60, 2-Ethyl-N-(4-isopropoxybenzyl)imidazo[1,2-a]pyridine-3-carboxamide], the MIC in experiment [1] (setting [3]) and in experiment [2] (setting [4]) was below 1 µM each time.

Take `CCc1nc2ccc(F)cn2c1C(=O)NCc1ccc(OC(F)(F)F)cc1` [Compound 103, 2-Ethyl-6-fluoro-N-(4-(trifluoromethoxy)benzyl)imidazo[1,2-a]pyridine-3-carboxamide]: the figures for the MIC in experiment [1] (setting [3]) and in experiment [2] (setting [4]) were 1 to 20 µM (≈ 0.381 to 7.63 µg/mL) and below 1 µM, respectively.

For `Cc1ccn2c(C(=O)NCc3ccccc3)c(C)nc2c1` [Compound 31, N-Benzyl-2,7-dimethylimidazo[1,2-a]pyridine-3-carboxamide], the MIC is 1 to 20 µM (≈ 0.279 to 5.59 µg/mL) in experiment [1] (setting [3]) and below 1 µM in experiment [2] (setting [4]).

Consider `Cc1nc2ccc(Cl)cn2c1C(=O)NCc1ccc(-c2ccccc2)cc1` [Compound 44], for which the MIC in experiment [1] (setting [3]) and in experiment [2] (setting [4]) was below 1 µM in each case.

For the compound `CCc1nc2ccc(Cl)cn2c1C(=O)NCc1ccc(-c2ccc(C#N)cc2C)cc1` [Compound 131, 6-Chloro-N-((4′-cyano-2′-methylbiphenyl-4-yl)methyl)-2-ethylimidazo[1,2-a]pyridine-3-carboxamide], the MIC in experiment [1] (setting [3]) and in experiment [2] (setting [4]) was below 1 µM in each case.

`CCc1nc2ccc(Cl)cn2c1C(=O)NCc1ccc(N2CCCCC2)cc1` [Compound 79, 6-Chloro-2-ethyl-N-(4-(piperidin-1-yl)benzyl)imidazo[1,2-a]pyridine-3-carboxamide]: the MIC in experiment [1] (setting [3]) and in experiment [2] (setting [4]) was below 1 µM in each case.

Turning to `COc1ccc(CCNC(=O)c2c(C)nc3ccccn23)cc1` [Compound 22, N-(4-Methoxyphenethyl)-2-methylimidazo[1,2-a]pyridine-3-carboxamide], the MIC in experiment [1] (setting [3]) and in experiment [2] (setting [4]) was above 20 µM throughout.

As to `CCc1nc2cc(Cl)ccn2c1C(=O)NCc1ccc(-c2ccncc2)cc1` [Compound 134, 7-Chloro-2-ethyl-N-(4-(pyridin-4-yl)benzyl)imidazo[1,2-a]pyridine-3-carboxamide], the MIC in experiment [1] (setting [3]) is 1 to 20 µM (≈ 0.391 to 7.82 µg/mL); in experiment [2] (setting [4]), below 1 µM.

On to `Cc1nc2ccc(Cl)cn2c1C(=O)NCc1ccc(OC(F)(F)F)cc1` [Compound 154, 6-Chloro-2-methyl-N-(4-(trifluoromethoxy)benzyl)imidazo[1,2-a]pyridine-3-carboxamide], for which the values for the MIC in experiment [1] (setting [3]) and in experiment [2] (setting [4]) were below 1 µM and 1 to 20 µM (≈ 0.384 to 7.68 µg/mL), respectively.

Take `CCc1nc2ccc(Cl)cn2c1CNc1ccc(OC(F)(F)F)cc1` [Compound 240, N-((6-Chloro-2-ethylimidazo[1,2-a]pyridin-3-yl)methyl)-4-(trifluoromethoxy)aniline]: the MIC in experiment [1] (setting [3]) and in experiment [2] (setting [4]) was above 20 µM each time.

With `CCc1nc2cc(Cl)ccn2c1C(=O)NCc1ccc(Oc2ccc(OC(F)(F)F)cc2)nc1` [Compound 195, 7-Chloro-2-ethyl-N-((6-(4-(trifluoromethoxy)phenoxy)pyridin-3-yl)methyl)imidazo[1,2-a]pyridine-3-carboxamide], the MIC in experiment [1] (setting [3]) and in experiment [2] (setting [4]) was 1 to 20 µM (≈ 0.491 to 9.82 µg/mL) throughout.

`CCc1nc2ccccn2c1C(=O)NCc1ccc(C(C)(C)C)cc1` [Compound 55, N-(4-tert-Butylbenzyl)-2-ethylimidazo[1,2-a]pyridine-3-carboxamide]: the MIC in experiment [1] (setting [3]) and in experiment [2] (setting [4]) was below 1 µM in each case.

As to `CCc1nc2cc(Cl)ccn2c1C(=O)NCc1ccc(-c2ccc(F)cc2Cl)cc1` [Compound 133, 7-Chloro-N-((2′-chloro-4′-fluorobiphenyl-4-yl)methyl)-2-ethylimidazo[1,2-a]pyridine-3-carboxamide], the MIC in experiment [1] (setting [3]) and in experiment [2] (setting [4]) was below 1 µM in each case.

Take `COc1cccn2c(C(=O)NCc3ccccc3)c(C)nc12` [Compound 41, N-Benzyl-8-methoxy-2-methylimidazo[1,2-a]pyridine-3-carboxamide]: the MIC in experiment [1] (setting [3]) and in experiment [2] (setting [4]) was above 20 µM in each case.

On to `COc1ccc(CNC(=O)c2c(C)nc3ccccn23)cc1` [Compound 12, N-(4-Methoxybenzyl)-2-methylimidazo[1,2-a]pyridine-3-carboxamide], for which the MIC in experiment [1] (setting [3]) and in experiment [2] (setting [4]) was 1 to 20 µM (≈ 0.295 to 5.91 µg/mL) throughout.

With `CCc1nc2ccc(Cl)cn2c1C(=O)NCc1ccc(Oc2ccccc2)cc1` [Compound 71], the MIC in experiment [1] (setting [3]) and in experiment [2] (setting [4]) was below 1 µM in each case.

`CCc1nc2ccc(Cl)cn2c1C(=O)NCc1ccc(OCC(C)C)cc1` [Compound 76]: the MIC in experiment [1] (setting [3]) and in experiment [2] (setting [4]) was below 1 µM throughout.

Consider `Cc1nc2ccccn2c1C(=O)NCC1CCNCC1` [Compound 20, 2-Methyl-N-(piperidin-4-ylmethyl)imidazo[1,2-a]pyridine-3-carboxamide], for which the MIC in experiment [1] (setting [3]) and in experiment [2] (setting [4]) was above 20 µM in each case.

Turning to `Cc1nc2ccccn2c1C(=O)NCc1ccccc1` [Compound 8, N-Benzyl-2-methylimidazo[1,2-a]pyridine-3-carboxamide], the MIC in experiment [1] (read-out: QUM (μM)) was above 20 µM; in experiment [1] (dose response confirmation, 80% bacterial growth inhibition, read-out: minimum inhibitory concentration (MIC), QUM assay), 5 µM (≈ 1.33 µg/mL); in experiment [2] (read-out: QIM (μM)), 1 to 20 µM (≈ 0.265 to 5.31 µg/mL); in experiment [2] (dose response confirmation, 80% bacterial growth inhibition, read-out: minimum inhibitory concentration (MIC), QIM assay), 2.5 µM (≈ 0.663 µg/mL).

Regarding `CCc1nc2ccc(Cl)cn2c1C(=O)NCc1ccc2ccccc2c1` [Compound 80, 6-Chloro-2-ethyl-N-(naphthalen-2-ylmethyl)imidazo[1,2-a]pyridine-3-carboxamide], the MIC in experiment [1] (setting [3]) and in experiment [2] (setting [4]) was below 1 µM throughout.

Turning to `CCc1nc2cc(Cl)ccn2c1C(=O)NCc1ccc(OCc2ccc(F)cc2)cc1` [Compound 203, 7-Chloro-2-ethyl-N-(4-(4-fluorobenzyloxy)benzyl)imidazo[1,2-a]pyridine-3-carboxamide], the MIC in experiment [1] (setting [3]) and in experiment [2] (setting [4]) was 1 to 20 µM (≈ 0.438 to 8.76 µg/mL) throughout.

As for `Cc1nc2cc(-c3ccccc3)ccn2c1C(=O)NCc1ccccc1` [Compound 37, N-Benzyl-2-methyl-7-phenylimidazo[1,2-a]pyridine-3-carboxamide], the MIC in experiment [1] (setting [3]) and in experiment [2] (setting [4]) was above 20 µM throughout.

As to `CCCCCC(=O)NCc1ccc(-c2ccc(CNC(=O)c3c(CC)nc4cc(Cl)ccn34)cc2)cc1` [Compound 184, 7-Chloro-2-ethyl-N-((4′-(hexanamidomethyl)biphenyl-4-yl)methyl)imidazo[1,2-a]pyridine-3-carboxamide], the MIC in experiment [1] (setting [3]) and in experiment [2] (setting [4]) was below 1 µM throughout.

On to `CCc1nc2cc(Cl)ccn2c1C(=O)NCc1ccc(OC(F)(F)F)cc1` [Compound 102, 7-Chloro-2-ethyl-N-(4-(trifluoromethoxy)benzyl)imidazo[1,2-a]pyridine-3-carboxamide], for which the results for the MIC in experiment [1] (setting [3]) and in experiment [2] (setting [4]) were below 1 µM and 1 to 20 µM (≈ 0.398 to 7.96 µg/mL), respectively.

Regarding `Cc1nc2ccccn2c1C(=O)NCc1ccc(F)cc1` [Compound 9, N-(4-Fluorobenzyl)-2-methylimidazo[1,2-a]pyridine-3-carboxamide], the MIC in experiment [1] (setting [3]) and in experiment [2] (setting [4]) was above 20 µM each time.

Take `CCc1nc2ccc(Cl)cn2c1C(=O)NCc1ccc(N2CCC(C)CC2)cc1` [Compound 214, 6-Chloro-2-ethyl-N-(4-(4-methylpiperidin-1-yl)benzyl)imidazo[1,2-a]pyridine-3-carboxamide]: the MIC in experiment [1] (setting [3]) and in experiment [2] (setting [4]) was below 1 µM each time.

For `CCOC(=O)c1c(C)nc2cc(-c3ccccc3)ccn12` [Compound 2, Ethyl 2-methyl-7-phenylimidazo[1,2-a]pyridine-3-carboxylate], the MIC in experiment [1] (setting [3]) and in experiment [2] (setting [4]) was above 20 µM each time.

Turning to `Cc1nc2cc(Cl)ccn2c1C(=O)NCc1ccc(-c2ccccc2)cc1` [Compound 45], the MIC in experiment [1] (setting [3]) and in experiment [2] (setting [4]) was below 1 µM each time.

`CCc1nc2cc(Cl)ccn2c1C(=O)NCc1ccc(-c2ccccc2C(F)(F)F)cc1` [Compound 124]: the MIC in experiment [1] (setting [3]) is 1 to 20 µM (≈ 0.458 to 9.16 µg/mL); in experiment [2] (setting [4]), below 1 µM.
